pIC50: −log10 of the molar value. Counter-ions that a name gives are not always drawn. Calls of active or inactive are those of the source. The calls are words filed in the database; no cut-off is given here.
Key:
[1] = Cytotoxicity against human KBV cells assessed as cell survival measured after 72 hrs incubation by MTT assay; type: functional, cell-based
KBV [2] = experiment: Inhibition of colony formation of human KVB cells assessed as reduction in colonies at 2.5 uM measured after 48 hrs by crystal violet staining based analysis; type: functional, cell-based
KBV [3] = experiment: Antimigratory activity against human KVB cells assessed as inhibition of cell migration at 50 nM and incubated for 24 hrs by scratch wound healing assay; type: functional, cell-based
[4] = target: T1, ATP-dependent translocase ABCB1 (Homo sapiens, UniProt P08183); experiment: Substrate activity at Pgp in human KVB cells assessed as intracellular accumulation measured after 4 hrs by LC-MS/MS analysis; type: cell-based; conditions: kbv
[5] = Reversal fold, ratio of PTX IC50 to PTX IC50 in presence of test compound for reversal of multi-drug resistance in human KVB cells at 10 uM measured after 72 hrs by MTT assay; type: functional, KBV
[6] = Cytotoxicity against human KBV cells assessed as cell survival at 10 uM measured after 72 hrs incubation by MTT assay relative to control; type: functional; conditions: read-out: Activity
[7] = Reversal of multi-drug resistance in human KVB cells assessed as increase in PTX-induced cytotoxicity by measuring cell survival at 10 uM measured after 72 hrs incubation in presence of 100 nM paclitaxel by MTT assay relative to control; type: functional, KBV
[8] = Reversal of multi-drug resistance in human KVB cells assessed as increase in PTX-induced cytotoxicity by measuring cell survival at 5 uM measured after 72 hrs incubation in presence of 100 nM paclitaxel by MTT assay relative to control; type: functional, KBV
[9] = target: T1, ATP-dependent translocase ABCB1; experiment: Inhibition of P-gp-mediated rhodamine-123 efflux in human KVB cells assessed as increase in intracellular Rhodamine-123 accumulation at 10 uM incubated for 30 mins by flow cytometry; type: cell-based; conditions: kbv, 0.5 h
[10] = Cytotoxicity against HUVEC cells assessed as cell survival measured after 72 hrs incubation by MTT assay; type: toxicity, cell-based; conditions: human
[11] = Cytotoxicity against human HK-2 cells assessed as cell survival measured after 72 hrs incubation by MTT assay; type: toxicity, cell-based
[12] = Reversal fold, ratio of cisplatin IC50 to cisplatin IC50 in presence of test compound for reversal of multi-drug resistance in human KVB cells at 25 uM measured after 72 hrs by MTT assay; type: functional, KBV
[13] = Reversal fold, ratio of 5-fluorouracil IC50 to 5-fluorouracil IC50 in presence of test compound for reversal of multi-drug resistance in human KVB cells at 10 uM measured after 72 hrs by MTT assay; type: functional, KBV
KBV [14] = experiment: Potentiation of PTX-mediated antimigratory activity against human KVB cells assessed as inhibition of cell migration at 2.5 to 10 uM and incubated for 24 hrs in presence of 50 nM by scratch wound healing assay; type: functional, cell-based; conditions: dose 2.5-10 µM
[15] = Reversal fold, ratio of ADR IC50 to ADR IC50 in presence of test compound for reversal of multi-drug resistance in human KVB cells at 5 uM measured after 72 hrs by MTT; type: functional, KBV
KBV [16] = experiment: Reduction in P-gp protein level in human KVB cells at 10 uM measured upto 96 hrs incubation by Western blot analysis; type: functional, cell-based
[17] = Reversal fold, ratio of cisplatin IC50 to cisplatin IC50 in presence of test compound for reversal of multi-drug resistance in human KVB cells at 10 uM measured after 72 hrs by MTT assay; type: functional, KBV
KBV [18] = experiment: Effect on P-gp sub-cellular localization in human KVB cells at 10 uM measured for 48 hrs incubation by immunofluorescence assay; type: functional, cell-based
KBV [19] = experiment: Potentiation of PTX-mediated inhibition of colony formation of human KVB cells assessed as reduction in colonies measured after 48 hrs by crystal violet staining based analysis; type: functional, cell-based; conditions: dose […] µM
[20] = target: T1, ATP-dependent translocase ABCB1; experiment: Thermal stabilization of P-gp in human KVB cells at 58 to 61 degreeC by CETSA assay; type: cell-based; conditions: kbv
[21] = Reversal fold, ratio of cisplatin IC50 to cisplatin IC50 in presence of test compound for reversal of multi-drug resistance in human KVB cells at 5 uM measured after 72 hrs by MTT assay; type: functional, KBV
[22] = target: Multidrug resistance-associated protein 1 (Homo sapiens, UniProt P33527); experiment: Thermal stabilization of ABCC1 in human KVB cells by CETSA assay; type: cell-based; conditions: kbv
[23] = target: T2, Broad substrate specificity ATP-binding cassette transporter ABCG2 (Homo sapiens, UniProt Q9UNQ0); experiment: Thermal stabilization of ABCG2 in human KVB cells by CETSA assay; type: cell-based; conditions: kbv
T2 sequence (Q9UNQ0 whole entry): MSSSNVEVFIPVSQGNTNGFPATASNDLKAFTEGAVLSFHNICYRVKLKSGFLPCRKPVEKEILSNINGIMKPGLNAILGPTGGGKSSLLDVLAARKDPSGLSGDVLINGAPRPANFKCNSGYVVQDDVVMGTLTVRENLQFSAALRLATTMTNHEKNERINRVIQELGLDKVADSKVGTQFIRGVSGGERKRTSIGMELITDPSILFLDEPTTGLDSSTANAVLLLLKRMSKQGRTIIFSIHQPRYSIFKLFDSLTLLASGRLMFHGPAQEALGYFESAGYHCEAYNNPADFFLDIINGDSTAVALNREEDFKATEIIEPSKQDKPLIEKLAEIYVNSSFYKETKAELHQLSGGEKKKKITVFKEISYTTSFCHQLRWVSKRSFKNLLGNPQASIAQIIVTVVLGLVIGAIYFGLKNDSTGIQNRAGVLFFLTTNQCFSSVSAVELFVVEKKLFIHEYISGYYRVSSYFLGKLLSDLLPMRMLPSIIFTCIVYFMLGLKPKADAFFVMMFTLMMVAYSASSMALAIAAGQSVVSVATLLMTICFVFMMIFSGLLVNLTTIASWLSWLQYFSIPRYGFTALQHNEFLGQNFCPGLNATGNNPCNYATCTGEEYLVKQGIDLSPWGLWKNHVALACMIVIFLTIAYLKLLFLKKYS

[24] = target: T1, ATP-dependent translocase ABCB1; experiment: Inhibition of P-gp-mediated rhodamine-123 efflux in human KVB cells assessed as increase in intracellular Rhodamine-123 accumulation incubated for 30 mins by flow cytometry; type: cell-based; conditions: kbv, 0.5 h, at 2.5 to 10 µM, dose 2.5-10 µM
[25] = Reversal fold, ratio of ADR IC50 to ADR IC50 in presence of test compound for reversal of multi-drug resistance in human KVB cells at 10 uM measured after 72 hrs by MTT; type: functional, KBV
[26] = Reversal fold, ratio of 5-fluorouracil IC50 to 5-fluorouracil IC50 in presence of test compound for reversal of multi-drug resistance in human KVB cells at 5 uM measured after 72 hrs by MTT assay; type: functional, KBV
[27] = target: T1, ATP-dependent translocase ABCB1; experiment: Inhibition of P-gp-mediated Ptx-C efflux in human KVB cells assessed as increase in fluorescence intensity incubated for 3 hrs by confocal microscopic analysis; type: cell-based; conditions: kbv, at 2.5 to 10 µM, dose 2.5-10 µM
[28] = Reversal fold, ratio of PTX IC50 to PTX IC50 in presence of test compound for reversal of multi-drug resistance in human KVB cells at 5 uM measured after 72 hrs by MTT; type: functional, KBV
[29] = Cytotoxicity against human KBV cells assessed as cell survival at 5 uM measured after 72 hrs incubation by MTT assay relative to control; type: functional; conditions: read-out: Activity

T1 sequence (P08183 whole entry): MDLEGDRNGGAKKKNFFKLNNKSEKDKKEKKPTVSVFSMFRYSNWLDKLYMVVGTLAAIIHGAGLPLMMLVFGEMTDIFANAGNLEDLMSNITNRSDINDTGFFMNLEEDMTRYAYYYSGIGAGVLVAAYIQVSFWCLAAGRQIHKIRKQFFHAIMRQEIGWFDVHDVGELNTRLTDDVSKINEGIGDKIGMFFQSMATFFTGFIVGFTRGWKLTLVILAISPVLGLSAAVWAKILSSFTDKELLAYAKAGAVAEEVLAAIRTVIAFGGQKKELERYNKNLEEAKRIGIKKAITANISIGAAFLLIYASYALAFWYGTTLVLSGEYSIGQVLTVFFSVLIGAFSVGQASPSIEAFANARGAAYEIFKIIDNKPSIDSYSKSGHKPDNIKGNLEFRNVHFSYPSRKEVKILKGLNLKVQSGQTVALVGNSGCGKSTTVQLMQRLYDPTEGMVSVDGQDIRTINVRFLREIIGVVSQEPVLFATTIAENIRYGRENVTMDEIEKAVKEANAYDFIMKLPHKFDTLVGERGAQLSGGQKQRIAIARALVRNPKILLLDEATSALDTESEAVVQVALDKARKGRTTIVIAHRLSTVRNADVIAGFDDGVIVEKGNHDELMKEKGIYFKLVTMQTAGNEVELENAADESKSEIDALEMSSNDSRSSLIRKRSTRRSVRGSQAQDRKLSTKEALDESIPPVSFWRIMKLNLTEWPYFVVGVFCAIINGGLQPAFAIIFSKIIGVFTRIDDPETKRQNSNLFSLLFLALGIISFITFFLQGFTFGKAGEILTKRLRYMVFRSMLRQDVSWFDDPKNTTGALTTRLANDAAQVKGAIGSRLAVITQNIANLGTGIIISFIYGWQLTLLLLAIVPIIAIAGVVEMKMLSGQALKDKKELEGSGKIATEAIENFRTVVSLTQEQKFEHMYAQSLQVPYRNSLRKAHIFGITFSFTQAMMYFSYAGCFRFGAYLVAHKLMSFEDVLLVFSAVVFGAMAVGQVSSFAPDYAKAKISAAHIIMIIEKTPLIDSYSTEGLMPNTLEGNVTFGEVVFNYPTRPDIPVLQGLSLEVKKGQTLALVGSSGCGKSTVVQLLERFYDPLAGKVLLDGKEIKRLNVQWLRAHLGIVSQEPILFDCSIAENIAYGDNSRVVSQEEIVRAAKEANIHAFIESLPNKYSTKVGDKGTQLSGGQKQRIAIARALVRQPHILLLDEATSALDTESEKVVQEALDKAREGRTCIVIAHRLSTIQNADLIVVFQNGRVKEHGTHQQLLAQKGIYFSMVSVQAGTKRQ
Multidrug resistance-associated protein 1, sequence (P33527 whole entry): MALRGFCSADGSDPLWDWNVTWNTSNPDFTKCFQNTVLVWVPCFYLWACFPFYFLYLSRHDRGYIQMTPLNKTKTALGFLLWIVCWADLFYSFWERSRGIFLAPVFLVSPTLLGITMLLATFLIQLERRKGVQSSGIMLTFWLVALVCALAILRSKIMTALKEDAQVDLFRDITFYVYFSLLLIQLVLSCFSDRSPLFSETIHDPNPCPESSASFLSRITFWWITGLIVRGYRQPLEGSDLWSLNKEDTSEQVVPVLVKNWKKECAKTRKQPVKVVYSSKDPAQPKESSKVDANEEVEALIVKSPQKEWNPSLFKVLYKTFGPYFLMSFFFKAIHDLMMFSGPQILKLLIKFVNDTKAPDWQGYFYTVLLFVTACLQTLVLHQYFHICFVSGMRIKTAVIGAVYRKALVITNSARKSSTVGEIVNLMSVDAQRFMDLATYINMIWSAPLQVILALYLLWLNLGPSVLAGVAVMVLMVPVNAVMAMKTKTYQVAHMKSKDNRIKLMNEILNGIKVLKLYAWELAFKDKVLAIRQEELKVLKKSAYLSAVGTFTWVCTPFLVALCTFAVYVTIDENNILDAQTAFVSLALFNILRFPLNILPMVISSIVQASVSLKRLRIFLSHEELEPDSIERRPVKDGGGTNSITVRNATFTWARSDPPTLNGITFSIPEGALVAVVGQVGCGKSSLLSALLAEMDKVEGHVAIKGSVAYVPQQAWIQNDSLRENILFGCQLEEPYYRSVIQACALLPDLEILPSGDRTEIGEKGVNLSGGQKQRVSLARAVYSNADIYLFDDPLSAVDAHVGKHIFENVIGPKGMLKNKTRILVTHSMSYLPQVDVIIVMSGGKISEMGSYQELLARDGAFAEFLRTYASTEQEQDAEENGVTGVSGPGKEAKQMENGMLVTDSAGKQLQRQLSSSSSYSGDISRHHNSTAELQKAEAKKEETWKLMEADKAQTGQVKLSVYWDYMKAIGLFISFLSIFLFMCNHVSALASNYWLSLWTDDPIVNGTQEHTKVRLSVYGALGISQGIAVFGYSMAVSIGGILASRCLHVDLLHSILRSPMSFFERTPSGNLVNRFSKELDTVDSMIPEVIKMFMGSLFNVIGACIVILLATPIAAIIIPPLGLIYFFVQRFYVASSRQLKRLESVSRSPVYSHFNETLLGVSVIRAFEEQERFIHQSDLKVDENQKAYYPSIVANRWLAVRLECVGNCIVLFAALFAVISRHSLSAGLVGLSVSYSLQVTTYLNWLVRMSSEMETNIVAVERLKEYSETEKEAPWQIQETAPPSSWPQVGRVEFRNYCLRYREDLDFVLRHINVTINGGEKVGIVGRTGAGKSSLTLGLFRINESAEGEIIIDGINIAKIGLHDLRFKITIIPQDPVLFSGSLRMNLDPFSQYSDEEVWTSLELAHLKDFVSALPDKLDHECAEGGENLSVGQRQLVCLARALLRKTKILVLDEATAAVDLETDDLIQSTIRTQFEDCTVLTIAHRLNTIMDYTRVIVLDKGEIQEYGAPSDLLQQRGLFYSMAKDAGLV

COc1cccc2c1C(=O)c1c(O)c3c(c(O)c1C2=O)C[C@@](O)(C(=O)CO)C[C@@H]3O[C@H]1C[C@H](N)[C@H](O)[C@H](C)O1 [DOXORUBICIN HYDROCHLORIDE]
pIC50 [1]: 5.09

CC(=O)O[C@H]1C(=O)[C@@]2(C)[C@H]([C@H](OC(=O)c3ccccc3)[C@]3(O)C[C@H](OC(=O)[C@H](O)[C@@H](NC(=O)c4ccccc4)c4ccccc4)C(C)=C1C3(C)C)[C@]1(OC(C)=O)CO[C@@H]1C[C@@H]2O
Activity (KBV [2]): inactive
Activity (KBV [3]): inactive

CC(C)(C)OC(=O)NCCCCCC(=O)N[C@H]1CC[C@]2(C)[C@H]3C[C@@H](O)[C@@H]4[C@@H]([C@]5(C)CC[C@H](C(C)(C)O)O5)CC[C@@]4(C)[C@]3(C)CC[C@H]2C1(C)C
Activity [4]: Active

CC(C)(C)OC(=O)N1CCC[C@@H]1C(=O)N[C@H]1CC[C@]2(C)[C@H]3C[C@@H](O)[C@@H]4[C@@H]([C@]5(C)CC[C@H](C(C)(C)O)O5)CC[C@@]4(C)[C@]3(C)CC[C@H]2C1(C)C
Ratio [5]: 157.7
Activity [4]: Active
viability at 10 µM [6]: 88%
Activity [7]: 21%
Activity [8]: 36%

COc1cc2c(cc1OC)CN(CCc1ccc(NC(=O)c3cc(OC)c(OC)cc3NC(=O)c3cnc4ccccc4c3)cc1)CC2
inhibition (INH) [9]: Active
Ratio [5]: 206.6
IC50 at 72 h [10]: 40.3 µM
pIC50 [1]: 5.06
IC50 at 72 h ([11]; read-out: IC50): 8.03 µM

COc1ccc(CCN(C)CCCC(C#N)(c2ccc(OC)c(OC)c2)C(C)C)cc1OC (stereo not given)
IC50 at 72 h [10]: > 100 µM
Activity [4]: Active
IC50 at 72 h [11]: 53.4 µM

CC(C)(C)OC(=O)N1CC[C@@H]1C(=O)N[C@H]1CC[C@]2(C)[C@H]3C[C@@H](O)[C@@H]4[C@@H]([C@]5(C)CC[C@H](C(C)(C)O)O5)CC[C@@]4(C)[C@]3(C)CC[C@H]2C1(C)C
Ratio [5]: 100.1
viability at 10 µM [6]: 99%
Activity [7]: 27%
Activity [8]: 47%

CN(C)C(=O)CCSC(SCCC(=O)O)c1cccc(/C=C/c2ccc3ccc(Cl)cc3n2)c1 (stereo not given) [MK-571]
Ratio IC50 [12]: 6.4

CC(C)(C)OC(=O)N1CC(CC(=O)N[C@H]2CC[C@]3(C)[C@H]4C[C@@H](O)[C@@H]5[C@@H]([C@]6(C)CC[C@H](C(C)(C)O)O6)CC[C@@]5(C)[C@]4(C)CC[C@H]3C2(C)C)C1
Ratio IC50 [13]: 1.1
Activity (KBV [14]): Active
Ratio IC50 [15]: 7.9
Activity (KBV [16]): inactive
Ratio [5]: 211.8
Ratio IC50 [17]: 1
IC50 at 72 h [10]: > 100 µM
Activity [4]: Active
viability at 10 µM [6]: 92%
Activity [7]: 23%
Activity (KBV [18]): inactive
Activity (KBV [19]): Dose-Dependent Effect
Activity [20]: Active
Ratio IC50 [21]: 1
Activity [22]: Not Active
pIC50 [1]: 4.35
IC50 at 72 h ([11]; read-out: IC50): 63.1 µM
Activity [23]: Not Active
inhibition (INH) [24]: Dose-Dependent Effect
Ratio IC50 [25]: 14.8
Ratio IC50 [26]: 1
Activity [8]: 36%
inhibition (INH) [27]: Dose-Dependent Effect

CC(C)(O)[C@H]1CC[C@@](C)([C@H]2CC[C@]3(C)[C@@H]2[C@H](O)C[C@@H]2[C@@]4(C)CC[C@H](NC(=O)[C@@H]5CCCN5)C(C)(C)[C@@H]4CC[C@]23C)O1
Ratio [5]: 65.1
Activity [4]: Not Active
viability at 10 µM [6]: 100%
Activity [7]: 30%
Activity [8]: 38%

CC(C)(O)[C@H]1CC[C@@](C)([C@H]2CC[C@]3(C)[C@@H]2[C@H](O)C[C@@H]2[C@@]4(C)CC[C@H](NC(=O)[C@@H]5CCCCN5)C(C)(C)[C@@H]4CC[C@]23C)O1
Activity [4]: Active
Ratio IC50 [28]: 116.7
viability at 5 µM [29]: 96%
Activity [8]: 41%

CC(C)(C)OC(=O)N1C[C@H](F)C[C@H]1C(=O)N[C@H]1CC[C@]2(C)[C@H]3C[C@@H](O)[C@@H]4[C@@H]([C@]5(C)CC[C@H](C(C)(C)O)O5)CC[C@@]4(C)[C@]3(C)CC[C@H]2C1(C)C
Ratio [5]: 102.4
viability at 10 µM [6]: 114%
Activity [7]: 26%
Activity [8]: 46%

O=c1[nH]cc(F)c(=O)[nH]1 [FLUOROURACIL]
pIC50 [1]: 3.08

COc1ccc2c3c([nH]c2c1)[C@H](CC(C)C)N1C(=O)[C@H](CCC(=O)OC(C)(C)C)NC(=O)[C@@H]1C3
Ratio IC50 [13]: 3.2

CC(C)(C)OC(=O)N1CCCC[C@H]1C(=O)N[C@H]1CC[C@]2(C)[C@H]3C[C@@H](O)[C@@H]4[C@@H]([C@]5(C)CC[C@H](C(C)(C)O)O5)CC[C@@]4(C)[C@]3(C)CC[C@H]2C1(C)C
Ratio [5]: 66
viability at 10 µM [6]: 102%
Activity [7]: 26%
Activity [8]: 61%

CC(C)(O)[C@H]1CC[C@@](C)([C@H]2CC[C@]3(C)[C@@H]2[C@H](O)C[C@@H]2[C@@]4(C)CC[C@H](O)C(C)(C)[C@@H]4CC[C@]23C)O1
Activity [4]: Not Active

From ChEMBL document CHEMBL5500376, “Novel pyxinol amide derivatives bearing an aliphatic heterocycle as P-glycoprotein modulators for overcoming multidrug resistance” (Eur J Med Chem, 2024)
